Assay results taken from patent US5039528A, “EAA antagonists as anti-emetic drugs” (priority 1989, dated 1991).
Read-outs that look alike come from different tables or passages of the source.

How the values were obtained:
NMDA receptors [1] = experiment: Chick retina assay: protection against excitotoxic action of NMDA; type: cell-based
Source text: (§1) Antagonist potencies were established in a chick retina assay which has
(§2) (NMDA, KA and Quis) for excitotoxic properties and EAA antagonists for
(§3) potency in protecting the retina against the excitotoxic action of such
(§4) agonists. The concentration of antagonist required to totally prevent the
(§5) toxic action of an agonist was used to compare antagonists for potency.
(§6) For purposes of illustration, the data were normalized by assigning a
(§7) EAA antagonist properties have been described in each category. Antagonis
(§8) potencies were established in a chick retina assay which has been used by
(§9) Quis) for excitotoxic properties and EAA antagonists for potency in
(§10) protecting the retina against the excitotoxic action of such agonists.
(§11) concentration of antagonist required to totally prevent the toxic action
(§12) of an agonist was used to compare antagonists for potency. For purposes o
(§13) to kynurenic acid vs KA (see table 1) and all other values were adjusted

[2] = cited from earlier work; for penetration of blood brain barriers: statement in text; for BBB penetrability: Table 1
humans = conditions: cited from earlier work; for psychotic effects: humans; for serious side effects: interaction with NMDA receptors throughout the brain
Quis receptors [3] = experiment: Chick retina assay: protection against excitotoxic action of Quis; type: cell-based
Source text: as §1, §2, §3, §4, §5, §6, §7, §8, §9, §10, §11, §12, §13

[4] = system: EAA receptors (NMDA, KA, Quis); conditions: cited from earlier work
KA receptors [5] = experiment: Chick retina assay: protection against excitotoxic action of KA; type: cell-based
Source text: as §1, §2, §3, §4, §5, §6, §7, §8, §9, §10, §11, §12, §13

KA receptors [6] = conditions: Table 1, *: not screened in chick retina assay; estimated from other reported electrophysiological data; cited from earlier work
NMDA receptors [7] = conditions: Table 1, *: not screened in chick retina assay; estimated from other reported electrophysiological data; cited from earlier work
Quis receptors [8] = conditions: Table 1, *: not screened in chick retina assay; estimated from other reported electrophysiological data; cited from earlier work
[9] = system: area postrema-CVO neurons; conditions: cited from earlier work; for emesis at a toxic dose: dogs and monkeys; for neurotoxic effects: subcutaneous, immature animals of various species including monkeys, CVO brain regions
patients = conditions: high blood concentrations, humans; cited from earlier work
dogs [10] = experiment: Emesis induction by glutamate in dogs; blockage by D-AP5 or Kyn; type: in vivo, dog
dogs [11] = experiment: Emesis induction by KA in dogs; blockage by Kyn; type: in vivo, dog
Experimental: Kainic acid (KA), an EAA agonist which triggers the KA class of non-NMDA receptors, was administered to dogs at dosages in the vicinity of 0.5 mg/kg SC.

cerebral ischemia = conditions: animal experiments, cerebral ischemia (stroke); cited from earlier work
neurons = conditions: cited from earlier work
[12] = system: emesis associated with cancer chemotherapy; conditions: cited from earlier work; for side effects: high doses; for anti-emetic effect in cancer chemotherapy: in vivo
[13] = system: motion sickness or vertigo; conditions: in vivo; cited from earlier work
ferrets = experiment: Emesis induction by cisplatin (8 mg/kg IV) in ferrets; blockage by Kyn; type: in vivo, ferret; conditions: cisplatin 8 mg/kg IV, ferrets
Experimental: Four ferrets (a control group) received 8 mg/kg IV cisplatin, a chemotherapeutic drug which has a powerful emetic effect.
Nine ferrets were treated with cisplatin (8 mg/kg IV), and with Kyn, either by bolus (one-shot) injection using 150 mg/kg, or by continuous IV infusion using 50 mg/kg/hour.

5-HT M receptors = conditions: cited from earlier work
[14] = Table 2, normalized to kynurenic acid vs KA = 1
[15] = Table 1, normalized to kynurenic acid vs KA = 1
[16] = Kyn 50 mg/kg/hour continuous IV infusion

## CCNC1(c2cccs2)CCCCC1=O (racemic) [tilletamine]
NMDA receptors [1]; [14]
  EAA antagonist potency vs NMDA: 200
[2]
  penetration of blood brain barriers: permeate easily through BBB's
humans
  psychotic effects: psychotic effects

## O=C(O)c1cc(O)c2ccc(Cl)cc2n1 [7-Cl-kynurenate, 7-chloro-kynurenic acid]
NMDA receptors [1]; [15]
  EAA antagonist potency vs NMDA: 10
Quis receptors [3]; [15]
  EAA antagonist potency vs Quis: 3
[4]
  EAA receptor subtype order of blockade: NMDA>KA>Quis
[2]
  BBB penetrability: very low
  penetration of blood brain barriers: do not penetrate blood-brain barriers
KA receptors [5]; [15]
  EAA antagonist potency vs KA: 4

## C/C(=C\C(N)C(=O)O)CP(=O)(O)O (centres unmarked) [CGP 37849]
KA receptors [6]
  EAA antagonist potency vs KA: 0
[2]
  BBB penetrability: moderate
NMDA receptors [7]
  EAA antagonist potency vs NMDA: 200
Quis receptors [8]
  EAA antagonist potency vs Quis: 0

## O=C(O)[C@@H]1C[C@H](CP(=O)(O)O)CCN1 [CGS 19755]
KA receptors [6]
  EAA antagonist potency vs KA: 0
NMDA receptors [7]
  EAA antagonist potency vs NMDA: 200
Quis receptors [8]
  EAA antagonist potency vs Quis: 0

## O=C(O)C1CN(C/C=C/P(=O)(O)O)CCN1 (centres unmarked) [CPP-ene]
KA receptors [6]
  EAA antagonist potency vs KA: 0
[2]
  BBB penetrability: moderate
  penetration of blood brain barriers: do not readily penetrate blood brain barriers
NMDA receptors [7]
  EAA antagonist potency vs NMDA: 200
Quis receptors [8]
  EAA antagonist potency vs Quis: 0

## O=C(O)C1CN(CCCP(=O)(O)O)CCN1 (centres unmarked) [CPP]
KA receptors [6]
  EAA antagonist potency vs KA: 0
NMDA receptors [7]
  EAA antagonist potency vs NMDA: 200
Quis receptors [8]
  EAA antagonist potency vs Quis: 0

## N[C@H](CCCP(=O)(O)O)C(=O)O [D-AP5, D-2-amino-5-phosphonopentanoate]
NMDA receptors [1]; [15]
  EAA antagonist potency vs NMDA: 40

## N[C@H](CCCCCP(=O)(O)O)C(=O)O [D-AP7, D-2-amino-7-phosphonoheptanoate]
NMDA receptors [1]; [15]
  EAA antagonist potency vs NMDA: 13
[2]
  BBB penetrability: very low
  penetration of blood brain barriers: do not readily penetrate blood brain barriers

## O=c1[nH]c2cc([N+](=O)[O-])c([N+](=O)[O-])cc2[nH]c1=O [DNQX, 6,7-dinitro-quinoxaline-2,3-dion]
NMDA receptors [1]; [15]
  EAA antagonist potency vs NMDA: 10
Quis receptors [3]; [15]
  EAA antagonist potency vs Quis: 40
[4]
  block of non-NMDA vs NMDA receptors: block non-NMDA receptors substantially more powerfully than NMDA receptors
  potency compared with kynurenic or 7-chloro-kynurenic acid: significantly more powerful
[2]
  BBB penetrability: very low
  penetration of blood brain barriers: do not penetrate blood-brain barriers
KA receptors [5]; [15]
  EAA antagonist potency vs KA: 20

## N[C@@H](CCC(=O)O)C(=O)O [Glutamate, glutamate]
[9]
  emesis at a toxic dose: first causes the animal to vomit before continued excitatory stimulation destroys the area postrema-CVO neurons
  neurotoxic effects: powerful neurotoxic effects
patients
  emetic properties: induce vomiting
Dogs [10]; 150 mg/kg IV
  emetic response to glutamate: An emetic response was observed in all animals
[2]
  penetration of blood brain barriers: does not penetrate the BBB

## C=C(C)[C@H]1CN[C@H](C(=O)O)[C@H]1CC(=O)O [KA, kainic acid]
Dogs [11]; in the vicinity of 0.5 mg/kg SC, without Kyn
  emetic response to KA: All of the animals suffered an emetic response

## C[C@]12N[C@H](Cc3ccccc31)c1ccccc12 [MK-801]
NMDA receptors [1]; [14]
  EAA antagonist potency vs NMDA: 5000
Cerebral ischemia
  neuroprotective effects: powerful neuroprotective effects
humans
  psychotic effects: psychotic effects
  serious side effects: psychotic disturbances and pathomorphological changes in cerebrocortical neurons

## c1ccc(C2(N3CCCCC3)CCCCC2)cc1 [PCP, phencyclidine]
NMDA receptors [1]; [14]
  EAA antagonist potency vs NMDA: 2000
[2]
  penetration of blood brain barriers: readily penetrate BBB
[2]; listed as phencyclidine
  penetration of blood brain barriers: permeate easily through BBB's
Cerebral ischemia
  neuroprotective effects: powerful neuroprotective effects
humans
  psychotic effects: psychotic effects
  serious side effects: psychotic disturbances and pathomorphological changes in cerebrocortical neurons

## OC(CN1CCC(Cc2ccc(F)cc2)CC1)c1ccc(Cl)cc1 (centres unmarked) [SL 82,0715]
NMDA receptors [1]; [15]
  EAA antagonist potency vs NMDA: 50

## N[C@@H](CC(=O)O)C(=O)O [aspartate]
[9]
  emesis at a toxic dose: first causes the animal to vomit before continued excitatory stimulation destroys the area postrema-CVO neurons
  neurotoxic effects: powerful neurotoxic effects
patients
  emetic properties: induce vomiting

## CN1[C@@H]2CC[C@H]1C[C@@H](OC(c1ccccc1)c1ccccc1)C2 [benztropine]
neurons; in vivo
  reduction of the neurotoxicity of NMDA antagonists that penetrate the BBB: effective in reducing the neurotoxicity

## OC(CCN1CCCCC1)(c1ccccc1)C1CC2C=CC1C2 (centres unmarked) [biperiden]
neurons; Ser. No. 424,548
  reduction of the neurotoxicity of NMDA antagonists that penetrate the BBB: effective in reducing the neurotoxicity

## CN1CCN(CCCN2c3ccccc3Sc3ccc(Cl)cc32)CC1 [compazine]
[12]
  side effects: severe side effects such as abnormal motor movements, muscle rigidity, and tremors
  anti-emetic effect in cancer chemotherapy: only weakly active as anti-emetics

## COc1ccc2c(c1)[C@]13CCCC[C@@H]1[C@H](C2)N(C)CC3 [dextromethorphan]
NMDA receptors [1]; [14]
  EAA antagonist potency vs NMDA: 20

## CN1CC[C@@]23CCCC[C@@H]2[C@@H]1Cc1ccc(O)cc13 [dextrorphan]
NMDA receptors [1]; [14]
  EAA antagonist potency vs NMDA: 40

## CN(C)CCOC(c1ccccc1)c1ccccc1 [dimenhydrinate]
[13]
  effect against motion sickness or vertigo: relatively ineffective unless taken before a boat or airplane ride or other motion begins, or before the onset of vertigo
  effect on nausea and vomiting caused by other factors: not effective

## CCN(CC)C(C)CN1c2ccccc2Sc2ccccc21 (centres unmarked) [ethopropazine]
NMDA receptors [1]; [14]
  EAA antagonist potency vs NMDA: 40

## O=C(CCCN1CCC(O)(c2ccc(Cl)cc2)CC1)c1ccc(F)cc1 [haloperidol]
[12]
  side effects: severe side effects such as abnormal motor movements, muscle rigidity, and tremors
  anti-emetic effect in cancer chemotherapy: only weakly active as anti-emetics

## CC(C(O)c1ccc(O)cc1)N1CCC(Cc2ccccc2)CC1 (centres unmarked) [ifenprodil]
NMDA receptors [1]; [15]
  EAA antagonist potency vs NMDA: 100

## CNC1(c2ccccc2Cl)CCCCC1=O (centres unmarked) [ketamine]
humans
  psychotic effects: psychotic effects

## O=C(O)c1cc(=O)c2ccccc2[nH]1 [kynurenic acid]
NMDA receptors [1]; [15]
  EAA antagonist potency vs NMDA: 4
Quis receptors [3]; [15]
  EAA antagonist potency vs Quis: 1
[4]
  EAA receptor subtype order of blockade: NMDA>KA>Quis
Dogs [10]; Kyn 75 mg/kg SC
  blockage of glutamate-induced emesis: could be blocked
Dogs [11]; 50 mg/kg SC
  blockage of KA-induced emesis: emesis was blocked
ferrets; [16]
  behavior/malaise after cisplatin, treated by continuous infusion: displayed playful behavior, sought and ate food, did not appear ill
  vomiting after cisplatin, treated by continuous infusion: did not vomit
ferrets; Kyn 150 mg/kg bolus
  appeared as ill as the control animals, treated by bolus injection: only one appeared to be as ill as the control animals
  vomiting and malaise after cisplatin, treated by bolus injection: Three of the ferrets treated by bolus injection vomited once or twice and showed transient malaise
KA receptors [5]; [15]
  EAA antagonist potency vs KA: 1

## CCN(CC)CCNC(=O)c1cc(Cl)c(N)cc1OC [metoclopramide]
[12]
  anti-emetic effect in cancer chemotherapy: only partially effective
5-HT M receptors
  5-HT M receptor antagonism: only a weak 5-HT M receptor antagonist

## OC(CCN1CCCC1)(c1ccccc1)C1CCCCC1 (centres unmarked) [procyclidine]
NMDA receptors [1]; [14]
  EAA antagonist potency vs NMDA: 67
neurons; Ser. No. 424,548
  reduction of the neurotoxicity of NMDA antagonists that penetrate the BBB: effective in reducing the neurotoxicity

## CN1[C@@H]2C[C@@H](OC(=O)[C@H](CO)c3ccccc3)C[C@H]1[C@@H]1O[C@@H]12 [scopolamine]
[13]
  effect against motion sickness or vertigo: relatively ineffective unless taken before a boat or airplane ride or other motion begins, or before the onset of vertigo
  effect on nausea and vomiting caused by other factors: not effective

## C=CCC1(C(C)CCC)C(=O)N=C(S)NC1=O (centres unmarked) [thiamylal]
NMDA receptors [1]; [14]
  EAA antagonist potency vs NMDA: 13
Quis receptors [3]; [14]
  EAA antagonist potency vs Quis: 2
KA receptors [5]; [14]
  EAA antagonist potency vs KA: 3

## CCCC(C)C1(CC)C(=O)NC(=S)NC1=O (centres unmarked) [thiopental]
NMDA receptors [1]; [14]
  EAA antagonist potency vs NMDA: 7
Quis receptors [3]; [14]
  EAA antagonist potency vs Quis: 2
KA receptors [5]; [14]
  EAA antagonist potency vs KA: 2

## OC(CCN1CCCCC1)(c1ccccc1)C1CCCCC1 (centres unmarked) [trihexyphenidyl]
neurons; Ser. No. 424,548
  reduction of the neurotoxicity of NMDA antagonists that penetrate the BBB: effective in reducing the neurotoxicity

## NC(CCCC(=O)O)C(=O)O (stereo not drawn) [α-amino adipate]
NMDA receptors [1]; [15]
  EAA antagonist potency vs NMDA: 5
